Data reported in ChEMBL document CHEMBL1201862, “PubChem BioAssay data set” (2004).
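Values below derive from 48-hour exposures of cells grown in 96-well plates, with endpoints linearly interpolated between the two concentrations bracketing the appropriate inhibition level. GI50 marks 50% less growth.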 Active and inactive are the calls of the source. Rule as the data show it: active = GI50 up to about 1.1 µM and inactive = higher.

Assays:
Assay in all cases: growth of human tumour cells (NCI), 48 h
HT-29 = tested on: HT-29
HCC 2998 = tested on: HCC 2998
OVCAR-3 = tested on: OVCAR-3
SF-268 = tested on: SF-268
Hs-578T = tested on: Hs-578T
SK-MEL-2 = tested on: SK-MEL-2
CCRF-CEM = tested on: CCRF-CEM
SF-539 = tested on: SF-539
A498 = tested on: A498
MDA-MB-435 = tested on: MDA-MB-435
UACC-62 = tested on: UACC-62
RPMI-8226 = tested on: RPMI-8226
SF-295 = tested on: SF-295
HCT-116 = tested on: HCT-116
SK-MEL-28 = tested on: SK-MEL-28
NCI-H460 = tested on: NCI-H460
ACHN = tested on: ACHN
HOP-62 = tested on: HOP-62
NCI-H23 = tested on: NCI-H23
HCT-15 = tested on: HCT-15
M14 = tested on: M14
MCF7 = tested on: MCF7
NCI-H226 = tested on: NCI-H226
U-251 = tested on: U-251
IGROV-1 = tested on: IGROV-1
786-0 = tested on: 786-0
A549 = tested on: A549
RXF 393 = tested on: RXF 393
SN12C = tested on: SN12C
SK-MEL-5 = tested on: SK-MEL-5
OVCAR-8 = tested on: OVCAR-8
UACC-257 = tested on: UACC-257
SNB-75 = tested on: SNB-75
NCI/ADR-RES = tested on: NCI/ADR-RES
EKVX = tested on: EKVX
SW-620 = tested on: SW-620
SNB-19 = tested on: SNB-19
T47D = tested on: T47D
OVCAR-4 = tested on: OVCAR-4
OVCAR-5 = tested on: OVCAR-5
LOX IMVI = tested on: LOX IMVI
MDA-N = tested on: MDA-N
UO-31 = tested on: UO-31
SK-OV-3 = tested on: SK-OV-3
TK-10 = tested on: TK-10
HOP-92 = tested on: HOP-92
COLO 205 = tested on: COLO 205
BT-549 = tested on: BT-549
HL-60 = tested on: HL-60
MDA-MB-231 = tested on: MDA-MB-231
DU-145 = tested on: DU-145
CAKI-1 = tested on: CAKI-1
NCI-H522 = tested on: NCI-H522
KM12 = tested on: KM12
Malme-3M = tested on: Malme-3M
PC-3 = tested on: PC-3
K562 = tested on: K562
MOLT-4 = tested on: MOLT-4

## COC(=O)CC1C(COC(C)=O)OC(n2cc(C)c(=O)[nH]c2=O)C1OC(C)=O (configuration not stated)
HT-29
  GI50: > 100 µM (inactive)
HCC 2998
  GI50: > 100 µM (inactive)
OVCAR-3
  GI50: > 100 µM (inactive)
SF-268
  GI50: > 100 µM (inactive)
Hs-578T
  GI50: 4.73 µM (inactive)
SK-MEL-2
  GI50: > 100 µM (inactive)
CCRF-CEM
  GI50: > 100 µM (inactive)
SF-539
  GI50: > 100 µM (inactive)
A498
  GI50: > 100 µM (inactive)
MDA-MB-435
  GI50: > 100 µM (inactive)
UACC-62
  GI50: > 100 µM (inactive)
RPMI-8226
  GI50: > 100 µM (inactive)
SF-295
  GI50: > 100 µM (inactive)
HCT-116
  GI50: > 100 µM (inactive)
SK-MEL-28
  GI50: > 100 µM (inactive)
NCI-H460
  GI50: > 100 µM (inactive)
ACHN
  GI50: > 100 µM (inactive)
HOP-62
  GI50: > 100 µM (inactive)
NCI-H23
  GI50: > 100 µM (inactive)
HCT-15
  GI50: > 100 µM
M14
  GI50: > 100 µM (inactive)
MCF7
  GI50: > 100 µM (inactive)
NCI-H226
  GI50: > 100 µM (inactive)
U-251
  GI50: > 100 µM (inactive)
IGROV-1
  GI50: > 100 µM (inactive)
786-0
  GI50: > 100 µM (inactive)
A549
  GI50: > 100 µM (inactive)
RXF 393
  GI50: > 100 µM (inactive)
SN12C
  GI50: > 100 µM (inactive)
SK-MEL-5
  GI50: > 100 µM (inactive)
OVCAR-8
  GI50: > 100 µM (inactive)
UACC-257
  GI50: > 100 µM (inactive)
SNB-75
  GI50: > 100 µM (inactive)
NCI/ADR-RES
  GI50: > 100 µM (inactive)
EKVX
  GI50: > 100 µM (inactive)
SW-620
  GI50: > 100 µM (inactive)
SNB-19
  GI50: > 100 µM (inactive)
T47D
  GI50: > 100 µM (inactive)
OVCAR-4
  GI50: > 100 µM (inactive)
OVCAR-5
  GI50: > 100 µM (inactive)
LOX IMVI
  GI50: > 100 µM (inactive)
MDA-N
  GI50: > 100 µM (inactive)
UO-31
  GI50: > 100 µM (inactive)
SK-OV-3
  GI50: > 100 µM (inactive)
TK-10
  GI50: > 100 µM (inactive)
HOP-92
  GI50: > 100 µM (inactive)
COLO 205
  GI50: > 100 µM (inactive)
BT-549
  GI50: > 100 µM (inactive)
HL-60
  GI50: > 100 µM (inactive)
MDA-MB-231
  GI50: > 100 µM (inactive)
DU-145
  GI50: > 100 µM (inactive)
CAKI-1
  GI50: > 100 µM (inactive)
NCI-H522
  GI50: > 100 µM (inactive)
KM12
  GI50: > 100 µM (inactive)
Malme-3M
  GI50: > 100 µM (inactive)
PC-3
  GI50: > 100 µM (inactive)

## CNC1NC(=O)c2ccccc2N1Cc1ccc(F)cc1 (configuration not stated)
HT-29
  GI50: > 100 µM (inactive)
HCC 2998
  GI50: > 100 µM (inactive)
OVCAR-3
  GI50: > 100 µM (inactive)
SF-268
  GI50: > 100 µM (inactive)
Hs-578T
  GI50: > 100 µM (inactive)
SK-MEL-2
  GI50: > 100 µM (inactive)
CCRF-CEM
  GI50: > 100 µM (inactive)
SF-539
  GI50: > 100 µM (inactive)
A498
  GI50: > 100 µM (inactive)
MDA-MB-435
  GI50: > 100 µM (inactive)
UACC-62
  GI50: > 100 µM (inactive)
RPMI-8226
  GI50: > 100 µM (inactive)
SF-295
  GI50: > 100 µM (inactive)
HCT-116
  GI50: > 100 µM (inactive)
SK-MEL-28
  GI50: > 100 µM (inactive)
NCI-H460
  GI50: > 100 µM (inactive)
ACHN
  GI50: > 100 µM (inactive)
HOP-62
  GI50: > 100 µM (inactive)
NCI-H23
  GI50: > 100 µM (inactive)
HCT-15
  GI50: > 100 µM
M14
  GI50: > 100 µM (inactive)
MCF7
  GI50: > 100 µM (inactive)
NCI-H226
  GI50: > 100 µM (inactive)
U-251
  GI50: > 100 µM (inactive)
IGROV-1
  GI50: > 100 µM (inactive)
786-0
  GI50: > 100 µM (inactive)
A549
  GI50: > 100 µM (inactive)
RXF 393
  GI50: > 100 µM (inactive)
SN12C
  GI50: > 100 µM (inactive)
SK-MEL-5
  GI50: > 100 µM (inactive)
OVCAR-8
  GI50: > 100 µM (inactive)
UACC-257
  GI50: > 100 µM (inactive)
SNB-75
  GI50: > 100 µM (inactive)
NCI/ADR-RES
  GI50: > 100 µM (inactive)
EKVX
  GI50: > 100 µM (inactive)
K562
  GI50: > 100 µM (inactive)
SW-620
  GI50: > 100 µM (inactive)
SNB-19
  GI50: > 100 µM (inactive)
T47D
  GI50: > 100 µM (inactive)
OVCAR-4
  GI50: > 100 µM (inactive)
OVCAR-5
  GI50: > 100 µM (inactive)
LOX IMVI
  GI50: > 100 µM (inactive)
MDA-N
  GI50: > 100 µM (inactive)
UO-31
  GI50: 11.1 µM (inactive)
SK-OV-3
  GI50: > 100 µM (inactive)
TK-10
  GI50: > 100 µM (inactive)
MOLT-4
  GI50: > 100 µM (inactive)
HOP-92
  GI50: > 100 µM (inactive)
COLO 205
  GI50: > 100 µM (inactive)
BT-549
  GI50: > 100 µM (inactive)
HL-60
  GI50: > 100 µM (inactive)
MDA-MB-231
  GI50: > 100 µM (inactive)
DU-145
  GI50: > 100 µM (inactive)
CAKI-1
  GI50: > 100 µM (inactive)
NCI-H522
  GI50: > 100 µM (inactive)
KM12
  GI50: > 100 µM (inactive)
Malme-3M
  GI50: > 100 µM (inactive)
PC-3
  GI50: > 100 µM (inactive)

## N#Cc1ccccc1-c1nc2c3c(c(N)ccc3n1)C(=O)c1ccccc1-2
HT-29
  GI50: 43.4 µM (inactive)
HCC 2998
  GI50: > 100 µM (inactive)
OVCAR-3
  GI50: 45.1 µM (inactive)
SF-268
  GI50: 51.5 µM (inactive)
Hs-578T
  GI50: 33.2 µM (inactive)
SK-MEL-2
  GI50: 47 µM (inactive)
CCRF-CEM
  GI50: 18.9 µM (inactive)
SF-539
  GI50: 37.3 µM (inactive)
A498
  GI50: 43.6 µM (inactive)
MDA-MB-435
  GI50: 76.2 µM (inactive)
UACC-62
  GI50: 64.6 µM (inactive)
RPMI-8226
  GI50: 14.3 µM (inactive)
SF-295
  GI50: 45.1 µM (inactive)
HCT-116
  GI50: 29.7 µM (inactive)
SK-MEL-28
  GI50: 24.8 µM (inactive)
NCI-H460
  GI50: > 100 µM (inactive)
ACHN
  GI50: 22.2 µM (inactive)
HOP-62
  GI50: 18.1 µM (inactive)
NCI-H23
  GI50: 88.7 µM (inactive)
HCT-15
  GI50: 31.8 µM
M14
  GI50: 23.1 µM (inactive)
MCF7
  GI50: 17.6 µM (inactive)
NCI-H226
  GI50: 35.2 µM (inactive)
U-251
  GI50: 34.6 µM (inactive)
IGROV-1
  GI50: 8.38 µM (inactive)
786-0
  GI50: 33 µM (inactive)
A549
  GI50: 71.6 µM (inactive)
RXF 393
  GI50: 18 µM (inactive)
SN12C
  GI50: 60 µM (inactive)
SK-MEL-5
  GI50: 32.1 µM (inactive)
OVCAR-8
  GI50: 33.5 µM (inactive)
UACC-257
  GI50: > 100 µM (inactive)
SNB-75
  GI50: 50.2 µM (inactive)
NCI/ADR-RES
  GI50: > 100 µM (inactive)
EKVX
  GI50: 30.3 µM (inactive)
K562
  GI50: 43.5 µM (inactive)
SW-620
  GI50: 31 µM (inactive)
SNB-19
  GI50: 55.1 µM (inactive)
T47D
  GI50: 6.7 µM (inactive)
OVCAR-4
  GI50: 71 µM (inactive)
OVCAR-5
  GI50: 34.8 µM (inactive)
LOX IMVI
  GI50: 27.9 µM (inactive)
MDA-N
  GI50: > 100 µM (inactive)
UO-31
  GI50: 8.85 µM (inactive)
SK-OV-3
  GI50: 24.4 µM (inactive)
TK-10
  GI50: 21.4 µM (inactive)
MOLT-4
  GI50: 32.3 µM (inactive)
HOP-92
  GI50: > 100 µM (inactive)
COLO 205
  GI50: 26.4 µM (inactive)
BT-549
  GI50: > 100 µM (inactive)
HL-60
  GI50: 20 µM (inactive)
MDA-MB-231
  GI50: 10.3 µM (inactive)
DU-145
  GI50: 64.1 µM (inactive)
CAKI-1
  GI50: 8.3 µM (inactive)
NCI-H522
  GI50: 32 µM (inactive)
KM12
  GI50: 11.5 µM (inactive)
Malme-3M
  GI50: > 100 µM (inactive)
PC-3
  GI50: 23.7 µM (inactive)
